Source: PubChem BioAssay (NCI)
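Test compounds were applied to cells in 96-well plates for 48 hours at 5 doses. At the GI50, growth is halved. TGI denotes the concentration required for complete inhibition of growth.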

How the values were obtained:
Experiment in all cases: inhibition of tumour cell growth, NCI panel, 48 h
786-0 renal = test system: 786-0 renal
A498 renal = test system: A498 renal
A549 NSCLC = test system: A549 NSCLC
ACHN renal = test system: ACHN renal
BT-549 breast = test system: BT-549 breast
CAKI-1 renal = test system: CAKI-1 renal
CCRF-CEM leukemia = test system: CCRF-CEM leukemia
COLO 205 colon = test system: COLO 205 colon
DU-145 prostate = test system: DU-145 prostate
EKVX NSCLC = test system: EKVX NSCLC
HCC-2998 colon = test system: HCC-2998 colon
HCT-116 colon = test system: HCT-116 colon
HCT-15 colon = test system: HCT-15 colon
HL-60(TB) leukemia = test system: HL-60(TB) leukemia
HOP-62 NSCLC = test system: HOP-62 NSCLC
HOP-92 NSCLC = test system: HOP-92 NSCLC
HS 578T breast = test system: HS 578T breast
HT29 colon = test system: HT29 colon
IGROV1 ovarian = test system: IGROV1 ovarian
K-562 leukemia = test system: K-562 leukemia
KM12 colon = test system: KM12 colon
LOX IMVI melanoma = test system: LOX IMVI melanoma
M14 melanoma = test system: M14 melanoma
MALME-3M melanoma = test system: MALME-3M melanoma
MCF7 breast = test system: MCF7 breast
MDA-MB-231 breast = test system: MDA-MB-231 breast
MDA-MB-435 = test system: MDA-MB-435
MOLT-4 leukemia = test system: MOLT-4 leukemia
NCI-H226 lung = test system: NCI-H226 lung
NCI-H23 lung = test system: NCI-H23 lung
NCI-H460 lung = test system: NCI-H460 lung
NCI-H522 lung = test system: NCI-H522 lung
NCI/ADR-RES ovarian = test system: NCI/ADR-RES ovarian
OVCAR-3 ovarian = test system: OVCAR-3 ovarian
OVCAR-4 ovarian = test system: OVCAR-4 ovarian
OVCAR-5 ovarian = test system: OVCAR-5 ovarian
OVCAR-8 ovarian = test system: OVCAR-8 ovarian
PC-3 prostate = test system: PC-3 prostate
RPMI-8226 leukemia = test system: RPMI-8226 leukemia
RXF 393 renal = test system: RXF 393 renal
SF-268 CNS = test system: SF-268 CNS
SF-295 CNS = test system: SF-295 CNS
SF-539 CNS = test system: SF-539 CNS
SK-MEL-2 melanoma = test system: SK-MEL-2 melanoma
SK-MEL-28 melanoma = test system: SK-MEL-28 melanoma
SK-MEL-5 melanoma = test system: SK-MEL-5 melanoma
SK-OV-3 ovarian = test system: SK-OV-3 ovarian
SN12C renal = test system: SN12C renal
SNB-19 CNS = test system: SNB-19 CNS
SNB-75 CNS = test system: SNB-75 CNS
SR leukemia = test system: SR leukemia
SW-620 colon = test system: SW-620 colon
T-47D breast = test system: T-47D breast
TK-10 renal = test system: TK-10 renal
U251 CNS = test system: U251 CNS
UACC-257 melanoma = test system: UACC-257 melanoma
UACC-62 melanoma = test system: UACC-62 melanoma
UO-31 renal = test system: UO-31 renal

**Q.** Which results are given for ClCc1ccc(-c2ccc(Cn3cnc4nc(Cl)nc(Cl)c43)cc2)cc1?
**A.** GI50 (786-0 renal): 17.1 µM; TGI (786-0 renal): 31.7 µM; GI50 (A498 renal): 17.7 µM; TGI (A498 renal): 32 µM; GI50 (A549 NSCLC): 3.53 µM; TGI (A549 NSCLC): > 100 µM; GI50 (ACHN renal): 5.36 µM; TGI (ACHN renal): 17 µM; GI50 (BT-549 breast): 2.72 µM; TGI (BT-549 breast): 6.59 µM; GI50 (CAKI-1 renal): 2.21 µM; TGI (CAKI-1 renal): 4.99 µM; GI50 (CCRF-CEM leukemia): 2.16 µM; TGI (CCRF-CEM leukemia): 4.86 µM; GI50 (COLO 205 colon): 4.02 µM; TGI (COLO 205 colon): 18.2 µM; GI50 (DU-145 prostate): 2.71 µM; TGI (DU-145 prostate): 7.6 µM; GI50 (EKVX NSCLC): 15.9 µM; TGI (EKVX NSCLC): 29.5 µM; GI50 (HCC-2998 colon): 4.63 µM; TGI (HCC-2998 colon): 21.7 µM; GI50 (HCT-116 colon): 3.85 µM; TGI (HCT-116 colon): 13.4 µM; GI50 (HCT-15 colon): 3.9 µM; TGI (HCT-15 colon): 13.9 µM; GI50 (HL-60(TB) leukemia): 12.3 µM; TGI (HL-60(TB) leukemia): > 100 µM; GI50 (HOP-62 NSCLC): 13.5 µM; TGI (HOP-62 NSCLC): 48.8 µM; GI50 (HOP-92 NSCLC): 3.82 µM; TGI (HOP-92 NSCLC): 8.78 µM; GI50 (HS 578T breast): 5.81 µM; TGI (HS 578T breast): 40.7 µM; GI50 (HT29 colon): 3.54 µM; TGI (HT29 colon): 12.4 µM; GI50 (IGROV1 ovarian): 14.3 µM; TGI (IGROV1 ovarian): 34.8 µM; GI50 (K-562 leukemia): 5.59 µM; TGI (K-562 leukemia): 44.1 µM; GI50 (KM12 colon): 3.69 µM; TGI (KM12 colon): 12.8 µM; GI50 (LOX IMVI melanoma): 1.86 µM; TGI (LOX IMVI melanoma): 3.3 µM; GI50 (M14 melanoma): 18.7 µM; TGI (M14 melanoma): 36.8 µM; GI50 (MALME-3M melanoma): 3.33 µM; TGI (MALME-3M melanoma): 7.88 µM; GI50 (MCF7 breast): 3.18 µM; TGI (MCF7 breast): 10.8 µM; GI50 (MDA-MB-231 breast): 11.1 µM; TGI (MDA-MB-231 breast): 23.7 µM; GI50 (MDA-MB-435): 5.25 µM; TGI (MDA-MB-435): 20.7 µM; GI50 (MOLT-4 leukemia): 3.36 µM; TGI (MOLT-4 leukemia): 10.9 µM; GI50 (NCI-H226 lung): 13.8 µM; TGI (NCI-H226 lung): 26.7 µM; GI50 (NCI-H23 lung): 7.32 µM; TGI (NCI-H23 lung): 24.3 µM; GI50 (NCI-H460 lung): 7.85 µM; TGI (NCI-H460 lung): 24.6 µM; GI50 (NCI-H522 lung): 12 µM; TGI (NCI-H522 lung): 36.4 µM; GI50 (NCI/ADR-RES ovarian): 3.97 µM; TGI (NCI/ADR-RES ovarian): 70.4 µM; GI50 (OVCAR-3 ovarian): 2.19 µM; TGI (OVCAR-3 ovarian): 4.59 µM; GI50 (OVCAR-4 ovarian): 15 µM; TGI (OVCAR-4 ovarian): 28.3 µM; GI50 (OVCAR-5 ovarian): 19.6 µM; TGI (OVCAR-5 ovarian): 36 µM; GI50 (OVCAR-8 ovarian): 2.41 µM; TGI (OVCAR-8 ovarian): 6.52 µM; GI50 (PC-3 prostate): 4.71 µM; TGI (PC-3 prostate): 16.7 µM; GI50 (RPMI-8226 leukemia): 3.81 µM; TGI (RPMI-8226 leukemia): 27.9 µM; GI50 (RXF 393 renal): 2.5 µM; TGI (RXF 393 renal): 5 µM; GI50 (SF-268 CNS): 3.6 µM; TGI (SF-268 CNS): 15.2 µM; GI50 (SF-295 CNS): 14.2 µM; TGI (SF-295 CNS): 30.7 µM; GI50 (SF-539 CNS): 2.3 µM; TGI (SF-539 CNS): 5.06 µM; GI50 (SK-MEL-2 melanoma): 7.9 µM; TGI (SK-MEL-2 melanoma): 21.2 µM; GI50 (SK-MEL-28 melanoma): 2.38 µM; TGI (SK-MEL-28 melanoma): 5.16 µM; GI50 (SK-MEL-5 melanoma): 4.55 µM; TGI (SK-MEL-5 melanoma): 16.5 µM; GI50 (SK-OV-3 ovarian): 19.7 µM; TGI (SK-OV-3 ovarian): 33.9 µM; GI50 (SN12C renal): 3.06 µM; TGI (SN12C renal): 12.3 µM; GI50 (SNB-19 CNS): 4.58 µM; TGI (SNB-19 CNS): 15.2 µM; GI50 (SNB-75 CNS): 4.5 µM; TGI (SNB-75 CNS): 15.2 µM; GI50 (SR leukemia): 2.39 µM; TGI (SR leukemia): 7.46 µM; GI50 (SW-620 colon): 2.22 µM; TGI (SW-620 colon): 4.75 µM; GI50 (T-47D breast): 7.03 µM; TGI (T-47D breast): 49.3 µM; GI50 (TK-10 renal): 6.88 µM; TGI (TK-10 renal): 20.4 µM; GI50 (U251 CNS): 3.82 µM; TGI (U251 CNS): 11.3 µM; GI50 (UACC-257 melanoma): 3.04 µM; TGI (UACC-257 melanoma): 9.88 µM; GI50 (UACC-62 melanoma): 4.13 µM; TGI (UACC-62 melanoma): 14.4 µM; GI50 (UO-31 renal): 16.7 µM; TGI (UO-31 renal): 34.1 µM
